Experimental findings from patent US9474759B2 (priority 2011, dated 2016) are described below.

For one data set, the system named is FIPV-1146. In words: Combination treatment of CA074-Me and GC373 on FIPV-1146 replication, MacSynergy II. Format: cell-based, feline coronavirus. The settings on record: GC373 alone at 0.05 μM, FIPV-infected CRFK cells. As to the method: The CRFK cells were incubated with GC373 (0.02˜0.2 μM), CA074-Me (0.5˜5 μM), or the combinations of GC373 (0.02˜0.2 μM) and CA074-Me (0.5˜5 μM) for 1 hr at 37° C. prior to inoculation of FIPV-1146 at an MOI of 0.05. After 24 hrs of incubation, virus replication was assessed with virus titration using the TCID50 method. Drug-drug interactions were analyzed by the three-dimensional model of Prichard and Shipman, using the MacSynergy II software at 95% confidence limits. Theoretical additive interactions were calculated from the dose-response curve for each compound individually, and the calculated additive surface was subtracted from the experimentally determined dose-response surface to give regions of synergistic or antagonistic interactions. The resulting surface appears as horizontal plane at 0% of synergy if the interactions of two compounds are additive. Any peak above or below this plane indicates synergy or antagonism, respectively.

The next data set relates to TGEV. The data set is described as follows: Cell-based screening, TGEV in ST cells (Example 2). Also on record: species or system transmissible gastroenteritis virus. The settings on record: Alphacoronavirus 1; ST cells; read-out: Inhibition [ED50 (μM)] against various viruses: Coronavirus, TGEV. As to the method:
(§1) 3. Cell-based screening of inhibitor. The effects of each inhibitor on the viral replication were examined. The list of viruses and corresponding cell lines are listed above in Table 2. Briefly, confluent cells were inoculated with virus at a MOI of 5 or 0.05 for 1 hr, and medium was replaced with medium containing mock-medium or each compound (up to 100 μM). The virus infected cells were further incubated for up to 96 hrs, and the replication of virus was measured by TCID50 assay with the 10-fold dilution of each sample used for virus titration (Reed and Muench, 1938). In some viruses, the virus protein and genome expression levels were detected by Western blot analysis and real-time qRT-PCR, respectively, as described below. The IC50s of the compounds were calculated.

The target in data set [1] is PV 3Cpro (codon-optimized, N-terminal 6 His, recombinant) (Poliovirus type 1, UniProt P03300). The data set is described as follows: biochemical. Further details: species or system poliovirus (poliomyelitis virus).
Data set [2] has as its system FCV. In words: Cell-based screening, FCV in CRFK cells (Example 2). The settings on record: Feline calicivirus; CRFK cells; read-out: Inhibition [ED50 (μM)] against various viruses: Calicivirus, FCV. On the procedure: as §1
In a further data set the test system is HAV. In words: Cell-based screening, HAV (Example 2). Also on record: species or system hepatitis A virus. The settings on record: Picornaviridae; read-out: Inhibition [ED50 (μM)] against various viruses: Picornavirus, HAV. As to the method: as §1
Data set [3] concerns Norwalk virus (HG23 cells). The data set is described as follows: microbe, parasite or virus in culture. Format: cell-based. The settings on record: HG23, read-out: Inhibition [ED50 (μM)] against various viruses: Calicivirus, HG23 cells.
In data set [4] the test system is murine norovirus-1 (MNV-1). In words: MNV-1 replication in RAW267.4 cells, TCID50 (Example 1). Format: cell-based. The settings on record: Norwalk virus, MOI 2, TCID50 assay, read-out: ED50, replication of murine norovirus (MNV).
Data set [5] has as its system norovirus (NV replicon-harboring HG23 cells). In words: NV replicon-harboring cells (HG23), NV genome levels by qRT-PCR (Example 1). Format: cell-based, Norwalk virus. The settings on record: read-out: ED50, effective dose that inhibits 50% of norovirus replication, NV genome levels at 24 hrs post-treatment.
In the next data set the test system is HG23 cells. The settings on record: human.
Data set [6] deals with FCV. The data set is described as follows: Cell culture system, FCV replication in CRFK cells (Example 3). Format: cell-based, feline calicivirus. The settings on record: Feline calicivirus; cell-based assay, CRFK cells; read-out: IC50 against FCV replication.
A further data set relates to Teschovirus. The data set is described as follows: organism not typed. Format: cell-based, porcine teschovirus. The settings on record: read-out: Inhibition [ED50 (μM)] against various viruses: Picornavirus, Teschovirus.
For another data set, the system named is MHV. In words: Cell-based screening, MHV in CCL-9.1 cells (Example 2). Also on record: species or system mouse hepatitis virus. The settings on record: Murine coronavirus; CCL-9.1 cells; read-out: Inhibition [ED50 (μM)] against various viruses: Coronavirus, MHV.
Another data set concerns the target TGEV 3CL protease (Porcine transmissible gastroenteritis coronavirus, UniProt P0C6Y5). The data set is described as follows: FRET-based protease assay, TGEV 3CL protease (Example 5). Format: biochemical, TGEV Miller strain. The text has this:
The 3CL proteases are highly conserved among all coronaviruses, and feline coronavirus 3CL protease is closely related TGEV 3CL protease. Therefore we cloned and expressed the TGEV 3CL protease for the FRET assay. The cDNA encoding the full length of 3CL protease of TGEV Miller strain was amplified with RT-PCR as previously described. The primers contained the nucleotide sequence of the 3CL protease for cloning as well as the nucleotides for 6 Histidine in the forward primer. The amplified product was subcloned to pET-28a(+) vector (GenScript, Piscataway, N.J.). The expression and purification of the 3CL protease was performed with a standard method described previously by our lab (Chang et al., 2012b; Takahashi et al., 2012; Tiew et al., 2011).
Our protease inhibitor compounds and commercial cathepsin inhibitors CA074-Me and E64d were prepared in DMSO as stock solutions (10 mM), and further diluted in assay buffer consisting of 20 mM HEPES, 0.4 mM EDTA, 30% glycerol, 120 mM NaCl, and 4 mM DTT at pH 6. […] TGEV 3CL protease at a final concentration of 0.1˜0.2 μM and the substrate (Dabcyl-[…]-Edans; SEQ ID NO:2) at 10 μM were used for the studies. The substrate was purchased from Bachem Americas, Inc (Torrance, Calif.). Compounds at various concentrations (0˜50 μM) were pre-incubated with TGEV 3CL protease in 25 μl for 30 min at 37° C., and the same volume of substrate was added to a 96-well black plate. The mixtures were then incubated at 37° C. for 60 min, and fluorescence readings were obtained on a microplate reader at 360 nm excitation and 480 nm emission wavelengths. The relative fluorescence units (RFU) were calculated by subtracting background (substrate control well without protease) from the fluorescence readings. The dose-dependent FRET inhibition curves were fitted with variable slope (four parameters) using GraphPad Prism software (La Jolla, Calif.) in order to determine the compound concentration that gives a half-maximum response (IC50).

The subject of another data set is EV71. In words: Cell-based screening, EV71 in Vero cells (Example 2). Further details: species or system enterovirus 71. The settings on record: Enterovirus A, EV71; Vero cells; read-out: Inhibition [ED50 (μM)] against various viruses: Picornavirus, EV71. On the procedure: as §1
Data set [7] deals with recombinant 3C or 3CL of MD145 (Norovirus Hu/GII.4/MD145-12/1987/US (Maryland virus), UniProt Q8V0P3). In words: FRET protease assay, MD145 3CL (Example 2). Format: biochemical, norovirus strain MD145.

One may read the IC50 as the concentration at which inhibition is half-maximal.

A value given as a limit tells only on which side of the number the result lay.

Chain of TGEV 3CL protease (P0C6Y5 2879-3180): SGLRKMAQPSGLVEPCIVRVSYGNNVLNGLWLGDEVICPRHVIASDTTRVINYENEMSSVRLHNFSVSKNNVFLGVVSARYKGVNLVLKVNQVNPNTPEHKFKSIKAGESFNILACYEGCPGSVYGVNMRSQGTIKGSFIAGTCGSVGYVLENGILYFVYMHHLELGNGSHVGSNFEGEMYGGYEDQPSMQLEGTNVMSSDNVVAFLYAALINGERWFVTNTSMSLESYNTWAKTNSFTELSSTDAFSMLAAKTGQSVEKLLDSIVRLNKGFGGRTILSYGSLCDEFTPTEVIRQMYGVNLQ
Chain of PV 3Cpro (codon-optimized, N-terminal 6 His, recombinant) (P03300 1566-1748 limits assumed): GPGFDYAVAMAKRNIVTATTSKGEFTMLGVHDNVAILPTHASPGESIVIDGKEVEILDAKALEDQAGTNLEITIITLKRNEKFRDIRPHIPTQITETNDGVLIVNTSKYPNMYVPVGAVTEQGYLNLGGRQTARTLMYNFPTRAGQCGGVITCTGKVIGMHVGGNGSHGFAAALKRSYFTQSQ
Chain of recombinant 3C or 3CL of MD145 (Q8V0P3 entry or part of it): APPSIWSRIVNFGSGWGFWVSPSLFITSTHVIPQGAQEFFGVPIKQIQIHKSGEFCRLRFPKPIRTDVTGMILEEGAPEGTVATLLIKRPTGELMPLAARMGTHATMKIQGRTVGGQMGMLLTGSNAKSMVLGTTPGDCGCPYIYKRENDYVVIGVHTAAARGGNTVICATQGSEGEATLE

In the case of `CC(C)C[C@H](NC(=O)OCc1ccccc1)C(=O)N[C@H](C=O)C[C@@H]1CCNC1=O` [GC373], the “reduction of virus titers” value with FIPV-1146 came to 0.5 log10. Besides, the EC50 in the data set on TGEV was 0.3 µM; with FCV [2], 65 µM; in the data set on HAV, greater than 100 µM; in data set [3], 2.1 µM; in data set [4] it was 5.5 µM; in data set [5], 2100 nM. The EC50 came out at 0.15 µM in the data set with Teschovirus, 2 µM with MHV and 11 µM in the data set on EV71. For the same molecule, the IC50 in data set [1] was 2020 ± 1560 nM; in the data set with FCV [6] it was 65 µM; at TGEV 3CL protease (TGEV 3CL protease, read-out: IC50 against 3CL protease in the FRET assay), 980 nM; in data set [7], 20.3 µM. The “TD50, median toxic dose” value with HG23 cells was greater than 320 µM. Moreover, at TGEV 3CL protease (compound at 50 μM final concentration), the “inhibition of the activity of TGEV 3CL protease (in words)” value is listed as “remarkably inhibited”.
